In brackets after ≈: the same amount, converted by molar mass.
Legend:
physchem [1] = settings: octanol/water
Description: Lipophilicity, log D of the compound

in vitro = settings: human, plasma
Description: Plasma protein binding in human

physchem [2] = settings: buffer, pH 6.5
Description: Thermodynamic solubility of the compound at pH 6.5

[3] = target: T1, Phosphatidylinositol 4,5-bisphosphate 3-kinase catalytic subunit delta isoform (Homo sapiens, UniProt O00329)
T1 sequence (O00329 whole entry): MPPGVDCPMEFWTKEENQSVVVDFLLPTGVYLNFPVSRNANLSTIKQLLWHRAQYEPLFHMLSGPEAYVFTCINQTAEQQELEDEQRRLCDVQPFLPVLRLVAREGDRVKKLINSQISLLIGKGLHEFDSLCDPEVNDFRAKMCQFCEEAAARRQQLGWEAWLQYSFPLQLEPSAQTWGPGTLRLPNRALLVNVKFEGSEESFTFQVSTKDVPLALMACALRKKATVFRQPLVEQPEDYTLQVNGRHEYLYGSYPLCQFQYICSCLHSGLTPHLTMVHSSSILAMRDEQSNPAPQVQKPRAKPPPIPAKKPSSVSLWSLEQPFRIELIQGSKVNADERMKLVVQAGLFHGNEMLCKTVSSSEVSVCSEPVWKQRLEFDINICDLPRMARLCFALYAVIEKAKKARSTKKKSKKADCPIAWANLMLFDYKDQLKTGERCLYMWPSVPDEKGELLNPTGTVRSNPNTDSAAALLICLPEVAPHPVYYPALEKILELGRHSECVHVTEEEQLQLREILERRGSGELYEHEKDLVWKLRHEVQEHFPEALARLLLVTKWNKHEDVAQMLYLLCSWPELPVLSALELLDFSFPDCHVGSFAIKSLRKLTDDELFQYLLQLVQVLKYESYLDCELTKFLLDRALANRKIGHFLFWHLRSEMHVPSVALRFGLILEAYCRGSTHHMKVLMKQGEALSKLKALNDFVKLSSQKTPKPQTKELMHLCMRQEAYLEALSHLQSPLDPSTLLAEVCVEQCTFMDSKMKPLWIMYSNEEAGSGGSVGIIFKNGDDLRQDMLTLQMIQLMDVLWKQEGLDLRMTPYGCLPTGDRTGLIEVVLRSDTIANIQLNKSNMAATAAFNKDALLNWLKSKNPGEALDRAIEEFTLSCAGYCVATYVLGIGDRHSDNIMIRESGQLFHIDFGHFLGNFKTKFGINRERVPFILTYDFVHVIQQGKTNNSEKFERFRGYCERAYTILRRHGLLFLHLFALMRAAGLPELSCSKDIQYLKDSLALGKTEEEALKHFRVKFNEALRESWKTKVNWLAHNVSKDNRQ

[4] = target: Phosphatidylinositol 4,5-bisphosphate 3-kinase catalytic subunit gamma isoform (Homo sapiens, UniProt P48736)
Phosphatidylinositol 4,5-bisphosphate 3-kinase catalytic subunit gamma isoform, sequence (P48736 whole entry, canonical isoform): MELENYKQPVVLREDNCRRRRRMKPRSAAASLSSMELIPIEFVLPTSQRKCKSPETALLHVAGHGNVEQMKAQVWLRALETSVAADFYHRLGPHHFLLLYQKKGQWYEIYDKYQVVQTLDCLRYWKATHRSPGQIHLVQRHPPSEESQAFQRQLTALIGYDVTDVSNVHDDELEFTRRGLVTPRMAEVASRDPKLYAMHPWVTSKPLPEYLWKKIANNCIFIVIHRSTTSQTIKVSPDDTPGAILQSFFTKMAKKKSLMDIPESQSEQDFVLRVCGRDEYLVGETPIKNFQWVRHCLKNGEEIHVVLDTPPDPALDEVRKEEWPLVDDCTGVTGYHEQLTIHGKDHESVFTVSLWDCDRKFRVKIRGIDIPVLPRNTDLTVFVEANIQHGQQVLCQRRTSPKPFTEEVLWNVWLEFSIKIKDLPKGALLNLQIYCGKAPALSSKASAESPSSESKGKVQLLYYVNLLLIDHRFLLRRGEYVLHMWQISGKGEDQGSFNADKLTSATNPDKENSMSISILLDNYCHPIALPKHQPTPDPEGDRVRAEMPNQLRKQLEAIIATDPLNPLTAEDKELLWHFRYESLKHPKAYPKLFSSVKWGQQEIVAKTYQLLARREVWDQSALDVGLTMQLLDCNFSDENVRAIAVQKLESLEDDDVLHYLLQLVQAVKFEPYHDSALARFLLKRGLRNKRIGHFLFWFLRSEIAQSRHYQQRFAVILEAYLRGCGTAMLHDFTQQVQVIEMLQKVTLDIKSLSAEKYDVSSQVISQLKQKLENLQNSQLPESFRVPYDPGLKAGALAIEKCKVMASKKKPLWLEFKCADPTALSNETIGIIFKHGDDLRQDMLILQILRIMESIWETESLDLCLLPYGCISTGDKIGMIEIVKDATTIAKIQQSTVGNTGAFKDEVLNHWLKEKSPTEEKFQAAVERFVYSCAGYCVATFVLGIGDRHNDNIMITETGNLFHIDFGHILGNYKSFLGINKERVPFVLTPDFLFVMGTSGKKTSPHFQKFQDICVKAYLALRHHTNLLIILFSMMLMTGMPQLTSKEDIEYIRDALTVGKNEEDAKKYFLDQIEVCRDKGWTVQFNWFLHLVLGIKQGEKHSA

[5] = target: Phosphatidylinositol 4,5-bisphosphate 3-kinase catalytic subunit alpha isoform (Homo sapiens, UniProt P42336)
Phosphatidylinositol 4,5-bisphosphate 3-kinase catalytic subunit alpha isoform, sequence (P42336 whole entry, canonical isoform): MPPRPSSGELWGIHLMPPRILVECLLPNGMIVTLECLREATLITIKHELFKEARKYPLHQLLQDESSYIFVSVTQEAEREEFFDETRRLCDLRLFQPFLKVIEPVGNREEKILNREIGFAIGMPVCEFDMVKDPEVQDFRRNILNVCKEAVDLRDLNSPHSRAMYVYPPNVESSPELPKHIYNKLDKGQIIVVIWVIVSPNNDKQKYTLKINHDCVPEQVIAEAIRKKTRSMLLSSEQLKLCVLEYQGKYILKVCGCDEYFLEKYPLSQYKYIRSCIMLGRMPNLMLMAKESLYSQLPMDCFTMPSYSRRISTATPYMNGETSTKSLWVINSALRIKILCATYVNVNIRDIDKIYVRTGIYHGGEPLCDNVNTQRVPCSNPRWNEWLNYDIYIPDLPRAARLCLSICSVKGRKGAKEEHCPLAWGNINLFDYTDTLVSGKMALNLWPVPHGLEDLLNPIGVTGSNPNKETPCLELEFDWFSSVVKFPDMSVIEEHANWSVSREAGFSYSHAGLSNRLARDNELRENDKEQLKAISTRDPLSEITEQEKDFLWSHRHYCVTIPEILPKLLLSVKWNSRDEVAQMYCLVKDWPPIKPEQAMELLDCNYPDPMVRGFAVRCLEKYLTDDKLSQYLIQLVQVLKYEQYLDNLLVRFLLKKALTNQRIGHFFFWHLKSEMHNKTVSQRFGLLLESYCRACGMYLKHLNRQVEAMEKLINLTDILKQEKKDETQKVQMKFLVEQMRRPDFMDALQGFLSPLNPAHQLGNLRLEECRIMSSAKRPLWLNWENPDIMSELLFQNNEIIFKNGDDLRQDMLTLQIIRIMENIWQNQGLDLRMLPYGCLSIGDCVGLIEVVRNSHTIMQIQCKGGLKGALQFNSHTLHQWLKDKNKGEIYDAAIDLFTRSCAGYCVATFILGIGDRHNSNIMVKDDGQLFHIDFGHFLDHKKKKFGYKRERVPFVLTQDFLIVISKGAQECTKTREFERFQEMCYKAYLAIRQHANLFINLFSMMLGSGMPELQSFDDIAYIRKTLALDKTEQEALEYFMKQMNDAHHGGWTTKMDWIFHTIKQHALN
Description: Inhibition of PI3K subunit p110alpha assessed as formation of phosphatidylinositide-3-phosphate product formation after 30 mins by fluorescence polarization assay

[6] = target: Serine/threonine-protein kinase mTOR (Homo sapiens, UniProt P42345)
Description: Inhibition of human recombinant mTOR expressed in insect cells assessed as phosphorylation of recombinant (GFP)-4-EBP1 measured after 30 mins by fluorescence polarization assay

[7] = target: Phosphatidylinositol 4,5-bisphosphate 3-kinase catalytic subunit beta isoform (Homo sapiens, UniProt P42338)
Phosphatidylinositol 4,5-bisphosphate 3-kinase catalytic subunit beta isoform, sequence (P42338 whole entry, canonical isoform): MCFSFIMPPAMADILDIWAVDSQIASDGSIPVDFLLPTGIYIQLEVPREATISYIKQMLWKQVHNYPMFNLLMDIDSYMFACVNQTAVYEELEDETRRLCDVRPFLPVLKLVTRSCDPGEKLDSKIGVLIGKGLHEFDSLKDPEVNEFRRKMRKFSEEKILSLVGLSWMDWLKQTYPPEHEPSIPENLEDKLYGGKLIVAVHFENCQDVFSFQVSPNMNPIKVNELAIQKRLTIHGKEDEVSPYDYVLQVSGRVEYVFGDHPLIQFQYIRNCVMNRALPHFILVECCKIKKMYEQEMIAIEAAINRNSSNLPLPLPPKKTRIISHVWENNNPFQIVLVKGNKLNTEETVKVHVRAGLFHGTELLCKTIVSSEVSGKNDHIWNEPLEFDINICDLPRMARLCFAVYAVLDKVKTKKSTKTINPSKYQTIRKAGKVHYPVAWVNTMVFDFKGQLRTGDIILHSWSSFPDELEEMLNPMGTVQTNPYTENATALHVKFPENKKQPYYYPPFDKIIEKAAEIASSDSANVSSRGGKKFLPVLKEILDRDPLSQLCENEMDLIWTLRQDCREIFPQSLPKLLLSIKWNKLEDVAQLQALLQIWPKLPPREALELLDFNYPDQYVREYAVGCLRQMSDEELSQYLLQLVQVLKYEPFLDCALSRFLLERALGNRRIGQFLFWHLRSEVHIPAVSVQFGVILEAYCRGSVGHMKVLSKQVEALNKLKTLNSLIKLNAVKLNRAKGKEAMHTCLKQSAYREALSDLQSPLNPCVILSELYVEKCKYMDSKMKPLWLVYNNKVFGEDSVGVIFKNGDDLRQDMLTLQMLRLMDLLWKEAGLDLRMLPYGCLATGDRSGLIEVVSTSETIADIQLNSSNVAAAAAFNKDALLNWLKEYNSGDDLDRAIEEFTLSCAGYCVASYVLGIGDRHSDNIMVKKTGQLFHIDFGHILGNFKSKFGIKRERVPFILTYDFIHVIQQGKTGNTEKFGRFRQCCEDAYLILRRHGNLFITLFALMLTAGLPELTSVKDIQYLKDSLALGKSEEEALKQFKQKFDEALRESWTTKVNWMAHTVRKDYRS
Description: Inhibition of PI3K subunit p110beta assessed as formation of phosphatidylinositide-3-phosphate product formation after 30 mins by fluorescence polarization assay

in vivo [8] = settings: Sprague-Dawley, rat, plasma, iv, 1 mg/kg
in vivo [9] = settings: beagle, dog, plasma, iv, 1 mg/kg
in vivo [10] = settings: Sprague-Dawley, rat, po, 1 mg/kg

Row | SMILES | solubility thermodynamic (physchem [2]) | IC50 [3] | IC50 [4] | IC50 [7] | clearance (in vivo [8]) | further results
1 | CS(=O)(=O)N1CCN(Cc2cc3nc(-c4cnc(N)nc4)nc(N4CCOCC4)c3s2)CC1 | 24 µg/mL (≈ 48.9 µM) |  |  |  |  | logD (physchem [1]): 1.3; fraction unbound (in vitro): 0.49
2 | Cc1c(CN2CCN(S(C)(=O)=O)CC2)sc2c(N3CCOCC3)nc(-c3cnc(N)nc3)nc12 | 9 µg/mL (≈ 17.8 µM) |  |  |  |  | fraction unbound (in vitro): 0.23
3 | CS(=O)(=O)N1CCN(Cc2cc3nc(-c4cnc(N)nc4)nc(N4CCOCC4)c3s2)CC1.O=C(O)C(F)(F)F |  |  |  |  | 24 mL/min/kg | 
4 | CS(=O)(=O)N1CCN(Cc2cc3nc(-c4cnc(N)nc4)nc(N4CCOCC4)c3s2)CC1.Cl |  |  |  |  |  | clearance (in vivo [9]): 22 mL/min/kg
5 | Cc1c(CN2CCN(S(C)(=O)=O)CC2)sc2c(N3CCOCC3)nc(-c3cnc(N)nc3)nc12.O=C(O)C(F)(F)F |  |  |  |  | 13 mL/min/kg | 
6 | Cc1c(CN2CCN(S(C)(=O)=O)CC2)sc2c(N3CCOCC3)nc(-c3cnc(N)nc3)nc12.Cl |  |  |  |  |  | clearance (in vivo [9]): 5 mL/min/kg
7 | Cc1c(CN2CCN(C(=O)CN)CC2)sc2c(N3CCOCC3)nc(-c3cnc(N)nc3)nc12.O=C(O)C(F)(F)F |  |  |  |  | 140 mL/min/kg | bioavailability (in vivo [10]): 0%
8 | Cc1c(CN2CCN(C(=O)C(C)(C)O)CC2)sc2c(N3CCOCC3)nc(-c3cnc(N)nc3)nc12.O=C(O)C(F)(F)F |  |  |  |  | 24 mL/min/kg | bioavailability (in vivo [10]): 71%

Continued, in another order:

Row | solubility thermodynamic (physchem [2]) | IC50 [3] | IC50 [4] | IC50 [7] | clearance (in vivo [8]) | SMILES | further results
9 | 690 µg/mL (≈ 1430 µM) | 4.3 nM | 17 nM | 11 nM |  | Cc1c(CN2CCN(C(=O)CN)CC2)sc2c(N3CCOCC3)nc(-c3cnc(N)nc3)nc12 | IC50 [5]: 0.7 nM; Ki [6]: 12 nM
10 |  | 2.4 nM | 37 nM | 29 nM |  | Cc1c(CN2CCN(C(=O)[C@H](C)N)CC2)sc2c(N3CCOCC3)nc(-c3cnc(N)nc3)nc12 | Ki [6]: 6.3 nM
11 | 1000 µg/mL (≈ 1950 µM) | 1.5 nM | 20 nM | 44 nM |  | Cc1c(CN2CCN(C(=O)C(C)(C)N)CC2)sc2c(N3CCOCC3)nc(-c3cnc(N)nc3)nc12 | Ki [6]: 14 nM
12 |  | 5.6 nM | 10 nM | 19 nM |  | Cc1c(CN2CCN(C(=O)CO)CC2)sc2c(N3CCOCC3)nc(-c3cnc(N)nc3)nc12 | Ki [5]: 2.8 nM
13 | 600 µg/mL (≈ 1170 µM) | 5 nM | 25 nM | 45 nM |  | Cc1c(CN2CCN(C(=O)C(C)(C)O)CC2)sc2c(N3CCOCC3)nc(-c3cnc(N)nc3)nc12 | Ki [6]: 14 nM
14 |  |  |  |  | 84 mL/min/kg | Cc1c(CN2CCN(C(=O)C(C)(C)N)CC2)sc2c(N3CCOCC3)nc(-c3cnc(N)nc3)nc12.O=C(O)C(F)(F)F | bioavailability (in vivo [10]): 6%
